# Source: patent US12116371B2, “Substituted pyridines as irreversible inhibitors of menin-MLL interaction” (BIOMEA FUSION, INC., priority 2018, dated 2024)
# Like-named read-outs stand apart in the source and are kept apart here.
# What was measured:
# Conditions in all cases: for IC50: Homo sapiens
# Panc 10.05 cells = assay: Proliferation assay, cells in adhesion; type: cell-based
# SK-LU-1/AMG510 cells = assay: Proliferation assay, cells in adhesion; type: cell-based
# SK-LU-1 cells = assay: Proliferation assay, cells in adhesion; type: cell-based
# MV4-11 cells = assay: Long term proliferation assay, Cell Titer-Glo read-out; type: cell-based, human
# Description: (§1) Compounds of invention are tested in the 5 suspension lines by 14-day long-term proliferation assay.
# (§2) The compound is tested in 10-pt dose titration (client will determine the starting concentration and the dilution scheme) and the final DMSO concentration is kept at 0.2%.
# (§3) On Day 0, in a flat bottom 96-well plate, add 100 μL of cells per well at the densities optimized. Prepare compounds in DMSO at 500× final concentration. Dilute the compounds with DMSO at the dilution. Dilute the compounds in media at 3× final concentration. Add 50 μL of compound or DMSO at 3× final concentration to each well. Final volume in each well is 150 μL, and final concentration of DMSO is 0.2%. Also include 3 untreated control wells, by adding 50 μL of media alone. Incubate plates for 96 hours.
# (§4) To do this take the total viable cell count calculated using step: • 1. Take the average of the replicates for each dose in order to be used in splitting the cells. • 2. Use a 96 well V-bottom plate to spin down the cells to remove old media and compound to split the cells. • 3. Based on the split ratio place the proper amount of media and cells into the V-bottom plate, and spin the plate at 1100 rpm for 5 minutes. • 4. Following the spin remove the media, careful not to disturb the cell pellet. Re-suspend pellet in 100 μL fresh media, and add to a new 96-well flat bottom plate. • 5. Add fresh compound, in the same manner as Step 3). • 6. Incubate plates for 72 hours. Repeat steps 5)-10) on Day 7. • 7. Incubate plates for 96 hours. Repeat Step 5)-10) on Day 11. • 8. Incubate 72 hours and repeat step 5) to take a final count. • 9. Data Analysis
# (§5) To calculate growth for days 4, 7, 11, and 14: • 1. Calculate the split factor for day 4 to 7, day 7 to 11, and day 11-14. The split factor is the viable cells/mL on Day X (either 4, 7 or 11) divided by the density the cells are being split back to. • 2. For growth of cells from day 4 to 7, multiply the day 7 viable cells/mL density by the split factor from day 4. • 3. For growth of cells from day 7 to 11, multiply the day 11 viable cells/mL density by the days 4, and 7 split factors. • 4. For growth of cells from Day 11 to 14, multiply the Day 14 viable cells/mL density by the days 4, 7, and 11 split factors. • 5. Plot growth on semi-log chart (viable cells/mL on Y axis, in log, and days on X axis). • 6. The growth inhibition was calculated with the formula ((untreated cell numbers-treated cell numbers)/untreated cell)). • 7. Calculate the IC50 for each compound in each line using XLFit (Sigmoidal Dose-Response Model, y=(Bottom+((Top-Bottom)/(1+((IC50/×)^Hill))))).
# MOLM-13 cells = assay: as above; type: cell-based, human
# Description: as §1, §2, §3, §4, §5
# MIAPaCa-2 cells = assay: Proliferation assay, cells in adhesion; type: cell-based
compound,measurement,setting,value
C=CC(=O)NC1CCCN(Cc2ccnc(C(=O)Nc3ccc(-c4cc5c(N6CCOCC6)ncnc5[nH]4)cc3)c2)C1 (stereo not drawn) [Compound 10],IC50,"Panc 10.05 cells; Panc1005, Panc 10.05, T4, read-out: IC50",790 nM
same,IC50,"Panc 10.05 cells; Panc1005, Panc 10.05, T4, read-out: pIC50 (converted)",794 nM
same,IC50,"Panc 10.05 cells; Panc1005, Panc 10.05, T7, read-out: IC50",490 nM
same,IC50,"Panc 10.05 cells; Panc1005, Panc 10.05, T7, read-out: pIC50 (converted)",490 nM
same,IC50,"Panc 10.05 cells; Panc1005, Panc 10.05, T11, read-out: IC50",280 nM
same,IC50,"Panc 10.05 cells; Panc1005, Panc 10.05, T11, read-out: pIC50 (converted)",282 nM
same,% max,"Panc 10.05 cells; Panc 10.05, T4",84%
same,% max,"Panc 10.05 cells; Panc 10.05, T7",97%
same,% max,"Panc 10.05 cells; Panc 10.05, T11",99%
same,IC50,"SK-LU-1/AMG510 cells; SK-LU-1, SK-LU-1/AMG510, T4, read-out: IC50",720 nM
same,IC50,"SK-LU-1/AMG510 cells; SK-LU-1, SK-LU-1/AMG510, T7, read-out: IC50",450 nM
same,IC50,"SK-LU-1/AMG510 cells; SK-LU-1, SK-LU-1/AMG510, T7, read-out: pIC50 (converted)",447 nM
same,IC50,"SK-LU-1/AMG510 cells; SK-LU-1/AMG510, T11, read-out: IC50",390 nM
same,IC50,"SK-LU-1/AMG510 cells; SK-LU-1/AMG510, T11, read-out: pIC50 (converted)",389 nM
same,% max,"SK-LU-1/AMG510 cells; SK-LU-1/AMG510, T4",83%
same,% max,"SK-LU-1/AMG510 cells; SK-LU-1/AMG510, T7",95%
same,% max,"SK-LU-1/AMG510 cells; SK-LU-1/AMG510, T11",98%
same,IC50,"SK-LU-1 cells; SK-LU-1, SK-LU-1, T4, read-out: IC50",680 nM
same,IC50,"SK-LU-1 cells; SK-LU-1, SK-LU-1, T7, read-out: IC50",590 nM
same,IC50,"SK-LU-1 cells; SK-LU-1, SK-LU-1, T7, read-out: pIC50 (converted)",589 nM
same,IC50,"SK-LU-1 cells; SK-LU-1, SK-LU-1, T11, read-out: IC50",370 nM
same,IC50,"SK-LU-1 cells; SK-LU-1, SK-LU-1, T11, read-out: pIC50 (converted)",372 nM
same,% max,"SK-LU-1 cells; SK-LU-1, T4",82%
same,% max,"SK-LU-1 cells; SK-LU-1, T7",95%
same,% max,"SK-LU-1 cells; SK-LU-1, T11",96%
same,IC50,"MV4-11 cells; MV4-11, 96 h, MV4-11, Day 4, Cell Titer-Glo, read-out: Day 4 IC50",150 nM
same,IC50,"MV4-11 cells; MV4-11, 168 h, MV4-11, Day 7, Cell Titer-Glo, read-out: Day 7 IC50",70 nM
same,IC50,"MV4-11 cells; MV4-11, 264 h, MV4-11, Day 11, Cell Titer-Glo, read-out: Day 11 IC50",60 nM
same,IC50,"MV4-11 cells; MV4-11, 336 h, MV4-11, Day 14, Cell Titer-Glo, read-out: Day 14 IC50",50 nM
same,IC50,"MV4-11 cells; MV4-11, MV4-11, T4, CellTiter-Glo, read-out: IC50",150 nM
same,IC50,"MV4-11 cells; MV4-11, MV4-11, T4, CellTiter-Glo, read-out: pIC50 (converted)",151 nM
same,IC50,"MV4-11 cells; MV4-11, MV4-11, T11, CellTiter-Glo, read-out: IC50",60 nM
same,IC50,"MV4-11 cells; MV4-11, MV4-11, T11, CellTiter-Glo, read-out: pIC50 (converted)",56.2 nM
same,% max,"MV4-11 cells; MV4-11, T4, CellTiter-Glo",99%
same,% max,"MV4-11 cells; MV4-11, T11, CellTiter-Glo",99%
same,IC50,"MOLM-13 cells; MOLM-13, 96 h, MOLM-13, Day 4, Cell Titer-Glo, read-out: Day 4 IC50",100 nM
same,IC50,"MOLM-13 cells; MOLM-13, 168 h, MOLM-13, Day 7, Cell Titer-Glo, read-out: Day 7 IC50",50 nM
same,IC50,"MOLM-13 cells; MOLM-13, 264 h, MOLM-13, Day 11, Cell Titer-Glo, read-out: Day 11 IC50",50 nM
same,IC50,"MOLM-13 cells; MOLM-13, 336 h, MOLM-13, Day 14, Cell Titer-Glo, read-out: Day 14 IC50",80 nM
same,IC50,"MOLM-13 cells; MOLM-13, MOLM-13, T4, CellTiter-Glo, read-out: IC50",100 nM
same,IC50,"MOLM-13 cells; MOLM-13, MOLM-13, T4, CellTiter-Glo, read-out: pIC50 (converted)",97.7 nM
same,IC50,"MOLM-13 cells; MOLM-13, MOLM-13, T11, CellTiter-Glo, read-out: IC50",50 nM
same,IC50,"MOLM-13 cells; MOLM-13, MOLM-13, T11, CellTiter-Glo, read-out: pIC50 (converted)",47.9 nM
same,% max,"MOLM-13 cells; MOLM-13, T4, CellTiter-Glo",98%
same,% max,"MOLM-13 cells; MOLM-13, T11, CellTiter-Glo",99%
same,IC50,"MIAPaCa-2 cells; MIA PaCa-2, MIAPaCa-2, T4, read-out: IC50",270 nM
same,IC50,"MIAPaCa-2 cells; MIA PaCa-2, MIAPaCa-2, T4, read-out: pIC50 (converted)",269 nM
same,IC50,"MIAPaCa-2 cells; MIA PaCa-2, MIAPaCa-2, T7, read-out: IC50",230 nM
same,IC50,"MIAPaCa-2 cells; MIA PaCa-2, MIAPaCa-2, T7, read-out: pIC50 (converted)",229 nM
same,IC50,"MIAPaCa-2 cells; MIA PaCa-2, MIAPaCa-2, T11, read-out: IC50",220 nM
same,IC50,"MIAPaCa-2 cells; MIA PaCa-2, MIAPaCa-2, T11, read-out: pIC50 (converted)",219 nM
same,% max,"MIAPaCa-2 cells; MIAPaCa-2, T4",96%
same,% max,"MIAPaCa-2 cells; MIAPaCa-2, T7",98%
same,% max,"MIAPaCa-2 cells; MIAPaCa-2, T11",99%
